By T/C is commonly meant the ratio of treated to control.

Data on seven compounds can be found in patent publication US20260297060A1, “COMPOUNDS FOR THE DEGRADATION OF MUTANT BRAF” (C4 THERAPEUTICS, INC., priority 2023, published 2026).

The test system of series [1] is A375 human melanoma xenografts. Put plainly: Example 7 efficacy study in A375 human melanoma xenografts (tumor volume, T/C, TGI). To be noted: 10 mg/kg, p.o.; for T/C / TGI / Tumor Size on PG-D14 (mean ± SEM): PG-D14. It counts as in vivo, BALB/c nude mice. As to the method:
For efficacy study, agents were tested in the A375 human melanoma xenografts. Compound 118, Compound 156, and Compound 180 were administered to BALB/c nude mice bearing A375 xenografts from day 0 and dosed p.o. twice per day (BID). Compound 141 was administered from day 0 and dosed p.o. twice per day (BID) or dosed p.o. daily (QD) from day 1. Compound 141, Compound 118, Compound 156, and Compound 180 were dosed at 10 mg/kg for 14 days. The known BRAF inhibitor Dabrafenib was used as a positive control. Dabrafenib was administered from day 1 and dosed p.o. daily (QD) for 14 days and dosed at 100 mg/kg.
The A375 tumor cells were maintained in vitro in DMEM medium supplemented with […] and 1% Penicillin-Streptomycin at 37° C. in an atmosphere of 5% CO2 in air. The tumor cells were routinely subcultured twice weekly. The cells growing in an exponential growth phase were harvested and counted for tumor inoculation.
Each mouse was inoculated subcutaneously at the right flank with A375 tumor cells (5×10^6) in 0.2 mL of PBS with Matrigel (PBS: Matrigel=1:1) supplemented for tumor development. Animals were grouped when the average tumor volume reached 246 mm^3 for efficacy study and 390 mm^3 for PKPD study on day 17 after tumor inoculation. The test articles administration and the animal numbers in each group are shown in the above experimental tables.
Prior to the onset of drug treatment, mice were measured for tumor size in two dimensions using a caliper, and the tumor volume (mm^3) was calculated using formula V=0.5 a×b^2 where a and b are the long and short diameters of the tumor in mm, respectively. Mice were randomized into different treatment groups based on the tumor volume.
The major endpoint was to see if the tumor growth could be delayed or mice could be cured. The tumor size was then used for calculations of T/C value. The T/C value (in percent) is an indication of antitumor effectiveness; T and C are the mean volumes of the treated and control groups, respectively on specified day.
TGI was calculated for each group using the formula: TGI (%)=[1−(Ti−T0)/(Ci−C0)]×100; Ti is the average tumor volume of a treatment group on a given day, T0 is the average tumor volume of the treatment group on the day of treatment start, Ci is the average tumor volume of the vehicle control group on the same day with Ti, and C0 is the average tumor volume of the vehicle group on the day of treatment start.
On the technique in general: Xenograft models place foreign cells or tissue in a host animal.

Series [2] can be described thus: Example 9 pharmacokinetics assay for efficacy study Part I and II (plasma, liver). It counts as in vivo, BALB/c nude mice. To be noted: mouse, po, 10 mg/kg, p.o., BID × 14 days, 6 h following treatment, ± SEM. As to the method: For efficacy study Part I, agents were tested in the A375 human melanoma xenografts. Compound 218 and Compound 157 were administered to BALB/c nude mice bearing A375 xenografts from day 0 and dosed twice a day (BID) for 14 days. Compound 218 and Compound 157 were dosed at 10 mg/kg via p.o.. Dabrafenib was administered from day 1 daily (QD) for 14 days and dosed at 100 mg/kg via p.o..
For efficacy study Part II, agents were tested in the A375 human melanoma xenografts model. Compound 133, Compound 144 and Compound 198 were administered to BALB/c nude mice bearing A375 xenografts from day 0 and dosed twice a day (BID) for 14 days. Compound 133, Compound 144 and Compound 198 were dosed at 10 mg/kg via p.o..
The plasma samples were collected at predetermined time points for PK analysis. The mice were euthanized at predetermined time points post the treatment. The blood samples were collected into the 1.5 mL Eppendorf tubes containing 15 μL of 0.5 M EDTA-K2. And then the anticoagulant blood samples were centrifuged at 2,500 g at 4° C. for 15 minutes. The plasma samples were separated into 2 aliquots. The 1st was used for PK analysis, and the 2nd served as backup. The samples were stored at −80° C. before bioanalysis.
Liver samples were collected at predetermined time points for PK analysis. The left lobe of the liver was dissected out and split into 2 parts. The 1st part was used for PK analysis and the 2nd part served as the backup for the study. The samples were transferred into pre-labeled tubes and quickly froze in liquid nitrogen within 2 minutes after dissection. The samples were stored at −80° C. before bioanalysis.
The harvested plasma and liver samples were processed for pharmacokinetics analysis by LC-MS/MS with a concentration range of 1.00-1,000 ng/mL for Dabrafenib in plasma and liver homogenate, 10.0-10,000 ng/mL for Compound 218, Compound 157, Compound 133, Compound 144 and Compound 198 in plasma and liver homogenate.

Where [3] appears, read: liver, read-out: Mean Concentration in Liver.
Setting [4] is: plasma, read-out: Mean Concentration in Plasma.

Where two headings read alike, the source gives them in different places.

`CCN(C)S(=O)(=O)Nc1ccc(F)c(Oc2ccc3ncc(OCC4CCN(C5CCC(c6cc7c(cc6F)c(N6CCC(=O)NC6=O)nn7C)CC5)CC4)nc3c2)c1C#N` (single isomer, unassigned) [Compound 118, 7-[2-cyano-3-[[ethyl(methyl)sulfamoyl]amino]-6-fluoro-phenoxy]-2-[[1-[4-[3-(2,4-dioxohexahydropyrimidin-1-yl)-5-fluoro-1-methyl-indazol-6-yl]cyclohexyl]-4-piperidyl]methoxy]quinoxaline] returned a T/C in series [1] (BID × 14 days) of 6.1%. Also, the TGI in series [1] (BID × 14 days) came to 115.3%. The “Tumor Size on PG-D14 (mean ± SEM)” value in series [1] (BID × 14 days) came to 81 ± 8 mm^3. Further, the “Tumor Volume (mean ± SEM)” value in series [1] (BID × 14 days, day 0) is given as 247 ± 14 mm^3; in series [1] (BID × 14 days, day 3), 326 ± 20 mm^3; in series [1] (BID × 14 days, day 7), 192 ± 20 mm^3; in series [1] (BID × 14 days, day 10), 117 ± 13 mm^3; in series [1] (BID × 14 days, day 14) it was 81 ± 8 mm^3.
Turning to `CCN(C)S(=O)(=O)Nc1ccc(F)c(Oc2ccc3ncc(C4CC5(CCN(C6CCC(c7cc8c(cc7F)c(N7CCC(=O)NC7=O)nn8C)CC6)CC5)C4)nc3c2)c1C#N` (single isomer, unassigned) [Compound 180, 7-[2-cyano-3-[[ethyl(methyl)sulfamoyl]amino]-6-fluoro-phenoxy]-2-[7-[4-[3-(2,4-dioxohexahydropyrimidin-1-yl)-5-fluoro-1-methyl-indazol-6-yl]cyclohexyl]-7-azaspiro[3.5]nonan-2-yl]quinoxaline], the T/C in series [1] (BID × 14 days) is listed as 7.2%. Besides, in series [1] (BID × 14 days), the TGI is 113.9%. Further, the “Tumor Size on PG-D14 (mean ± SEM)” value in series [1] (BID × 14 days) is reported as 96 ± 11 mm^3. For the same compound, the “Tumor Volume (mean ± SEM)” value in series [1] (BID × 14 days, day 0) stood at 247 ± 16 mm^3; in series [1] (BID × 14 days, day 3), 319 ± 22 mm^3; in series [1] (BID × 14 days, day 7), 222 ± 18 mm^3; in series [1] (BID × 14 days, day 10), 151 ± 16 mm^3; in series [1] (BID × 14 days, day 14) it was 96 ± 11 mm^3.
As for `CCN(C)S(=O)(=O)Nc1ccc(F)c(Oc2ccc3ncc(OC4CC5(CCN(C6CCC(c7cc8c(cc7F)c(N7CCC(=O)NC7=O)nn8C)CC6)CC5)C4)nc3c2)c1C#N` (single isomer, unassigned) [Compound 218, 7-[2-cyano-3-[[ethyl(methyl)sulfamoyl]amino]-6-fluoro-phenoxy]-2-[[7-[4-[3-(2,4-dioxohexahydropyrimidin-1-yl)-5-fluoro-1-methyl-indazol-6-yl]cyclohexyl]-7-azaspiro[3.5]nonan-2-yl]oxy]quinoxaline], the concentration at 6 h in series [2] (setting [3]) was 5640 ± 588 ng/g; in series [2] (setting [4]) it was 2270 ± 201 ng/mL.
For `Cn1nc(N2CCC(=O)NC2=O)c2cc(F)c(N3CC4(CC(N5CCC6(CC5)C[C@@H](n5cnc7ccc(Oc8c(F)ccc(NS(=O)(=O)N9CC[C@@H](F)C9)c8C#N)cc7c5=O)CO6)C4)C3)cc21` [Compound 133, (3R)-N-[2-cyano-3-[3-[(3R)-8-[2-[3-(2,4-dioxohexahydropyrimidin-1-yl)-5-fluoro-1-methyl-indazol-6-yl]-2-azaspiro[3.3]heptan-6-yl]-1-oxa-8-azaspiro[4.5]decan-3-yl]-4-oxo-quinazolin-6-yl]oxy-4-fluoro-phenyl]-3-fluoro-pyrrolidine-1-sulfonamide] the same measures were 1910 ± 169 ng/g and 5070 ± 270 ng/mL.
As for `CCN(C)S(=O)(=O)Nc1ccc(F)c(Oc2ccc3ncn(C4CC5(CCN(C6CC7(C6)CN(c6cc8c(cc6F)c(N6CCC(=O)NC6=O)nn8C)C7)CC5)C4)c(=O)c3c2)c1C#N` (stereo not shown) [Compound 141, 6-[2-cyano-3-[[ethyl(methyl)sulfamoyl]amino]-6-fluoro-phenoxy]-3-[7-[2-[3-(2,4-dioxohexahydropyrimidin-1-yl)-5-fluoro-1-methyl-indazol-6-yl]-2-azaspiro[3.3]heptan-6-yl]-7-azaspiro[3.5]nonan-2-yl]-4-oxo-quinazoline], the T/C in series [1] (BID × 14 days) worked out at 2.4%; in series [1] (QD × 14 days), 3.0%. Also, the TGI was found to be 119.8% in series [1] (BID × 14 days) and 119.0% in series [1] (QD × 14 days). The “Tumor Size on PG-D14 (mean ± SEM)” value in series [1] (BID × 14 days) is reported as 32 ± 4 mm^3; in series [1] (QD × 14 days), 40 ± 6 mm^3. The “Tumor Volume (mean ± SEM)” value in series [1] (BID × 14 days, day 0) came to 246 ± 15 mm^3; in series [1] (BID × 14 days, day 3) it was 181 ± 15 mm^3; in series [1] (BID × 14 days, day 7), 109 ± 13 mm^3; in series [1] (BID × 14 days, day 10), 59 ± 6 mm^3; in series [1] (BID × 14 days, day 14), 32 ± 4 mm^3; in series [1] (QD × 14 days, day 0), 246 ± 12 mm^3. For the same compound, the “Tumor Volume (mean ± SEM)” value is reported as 275 ± 9 mm^3 in series [1] (QD × 14 days, day 3); 138 ± 13 mm^3 in series [1] (QD × 14 days, day 7); 81 ± 9 mm^3 in series [1] (QD × 14 days, day 10); 40 ± 6 mm^3 in series [1] (QD × 14 days, day 14).
On to `CO[C@@H]1CCN(S(=O)(=O)Nc2ccc(F)c(Oc3ccc4ncn([C@H]5COC6(CCN(C7CC8(C7)CN(c7cc9c(cc7F)c(N7CCC(=O)NC7=O)nn9C)C8)CC6)C5)c(=O)c4c3)c2C#N)C1` [Compound 144, (3R)-N-[2-cyano-3-[3-[(3R)-8-[2-[3-(2,4-dioxohexahydropyrimidin-1-yl)-5-fluoro-1-methyl-indazol-6-yl]-2-azaspiro[3.3]heptan-6-yl]-1-oxa-8-azaspiro[4.5]decan-3-yl]-4-oxo-quinazolin-6-yl]oxy-4-fluoro-phenyl]-3-methoxy-pyrrolidine-1-sulfonamide], for which the concentration at 6 h in series [2] (setting [3]) was found to be 2470 ± 252 ng/g; in series [2] (setting [4]), 14700 ± 2220 ng/mL.
Take `CCN(C)S(=O)(=O)Nc1ccc(F)c(Oc2ccc3ncn(C4CC5(CCN(C6CCN(c7cc8c(cc7F)c(N7CCC(=O)NC7=O)nn8C)CC6)CC5)C4)c(=O)c3c2)c1C#N` [Compound 156, 6-[2-cyano-3-[[ethyl(methyl)sulfamoyl]amino]-6-fluoro-phenoxy]-3-[7-[1-[3-(2,4-dioxohexahydropyrimidin-1-yl)-5-fluoro-1-methyl-indazol-6-yl]-4-piperidyl]-7-azaspiro[3.5]nonan-2-yl]-4-oxo-quinazoline]: the T/C in series [1] (BID × 14 days) is given as 2.6%. The TGI in series [1] (BID × 14 days) is recorded as 119.6%. The “Tumor Size on PG-D14 (mean ± SEM)” value in series [1] (BID × 14 days) is listed as 34 ± 5 mm^3. Besides, the “Tumor Volume (mean ± SEM)” value in series [1] (BID × 14 days, day 0) turned out to be 246 ± 13 mm^3; in series [1] (BID × 14 days, day 3), 203 ± 16 mm^3; in series [1] (BID × 14 days, day 7) it was 111 ± 4 mm^3; in series [1] (BID × 14 days, day 10) it was 68 ± 3 mm^3; in series [1] (BID × 14 days, day 14) it was 34 ± 5 mm^3.
